Test results from patent publication US20020051808A1, “Drug delivery system involving interaction between protein or polypeptide and hydrophobic biodegradable polymer” (priority 1995, published 2002).

Experiments:
Format in all cases: physicochemical
[1] = Molecular interaction of salmon calcitonin with polyglycolic acid (co-precipitation, supernatant assay); conditions: for CALCITONIN CONC.: supernatant
Procedure: The present example was intended to quantify chemical and/or physical association between salmon calcitonin and polyglycolic acid (PGA) having a molecular weight of 40,000 Daltons.
(§1) Approximately five mg of calcitonin were quantitatively weighed and placed in each of a series of 5 ml volumetric flasks. Hexafluoroacetone sesquihydrate (HFA) was added dropwise until the calcitonin dissolved completely. A 5% PGA in HFA solution was quantitatively added dropwise to each flask to provide a mass of PGA covering the range of 0 to 26.3 mg. The flasks were agitated for 5 minutes to mix the solution. Each flask was then filled to the 5 ml mark with phosphate buffer (pH 7.3). The addition of buffer precipitated the PGA plus any calcitonin that had bound with the polymer. The resulting mixture was centrifuged and the supernatant was analyzed spectrophotometrically for salmon calcitonin content. 26 mg of PGA (40,000 Mw) removed approximately 4.1 mg (83%) of salmon calcitonin.

[2] = In vitro release of salmon calcitonin from microspheres; conditions: in the phosphate buffer, pH 7.4, 37° C.
Procedure: Twenty mg of PGA-salmon calcitonin microspheres were loaded into a test tube. Ten ml of a 0.1M phosphate buffer, pH 7.4, containing EDTA were added and the tubes transferred to a 37° C. water bath. Nineteen μg salmon calcitonin/mg microspheres were released initially as a burst. This initial release was followed by a fast release of 50% of the total drug in less than two hours. At this point, a slow release followed and 22 μg salmon calcitonin/mg microspheres (22% of total drug) was released in the following 29 hours.

[3] = Molecular interaction of salmon calcitonin with poly(glycolic-Co-lactic acid); conditions: for CALCITONIN CONC.: supernatant
Procedure: as §1
The procedure of preparing the poly(glycolic-Co-lactic acid) (PGL) having a molecular weight of 50,000 microspheres was similar to that used for PGA, except the hexafluoro-2-propanol was substituted for HFA. Above 8 mg of PGL over 80% of salmon calcitonin was removed.

[4] = Molecular interaction of salmon calcitonin with polylactic acid; conditions: for CALCITONIN CONC.: supernatant
Procedure: as §1
The procedure for preparing the polylactic acid (PLA), dl-type having a molecular weight of 50,000, was similar to that used for PGA, except that methylene chloride was substituted for HFA and the calcitonin was suspended rather than dissolved in the methylene chloride. In addition, since methylene chloride and buffer are not miscible, salmon calcitonin was extracted from methylene chloride in buffer. The aqueous phase was separated, centrifuged and the supernatant was analyzed spectrophotometrically for salmon calcitonin.

salmon calcitonin
salmon calcitonin removed ([1]; 26 mg of PGA (40,000 Mw)): approximately 4.1 mg
salmon calcitonin removed (percent) ([1]; 26 mg of PGA (40,000 Mw)): ~83%
% CALCITONIN REMOVED ([1]; PGA mass 0.00 mg): 1.90%
CALCITONIN REMOVED ([1]; PGA mass 0.00 mg): 0.099 mg
% CALCITONIN REMOVED ([1]; PGA mass 5.73 mg): 2.71%
CALCITONIN REMOVED ([1]; PGA mass 5.73 mg): 0.125 mg
% CALCITONIN REMOVED ([1]; PGA mass 7.81 mg): 22.3%
CALCITONIN REMOVED ([1]; PGA mass 7.81 mg): 1.07 mg
% CALCITONIN REMOVED ([1]; PGA mass 7.89 mg): 6.80%
CALCITONIN REMOVED ([1]; PGA mass 7.89 mg): 0.340 mg
% CALCITONIN REMOVED ([1]; PGA mass 10.4 mg): 54.0%
CALCITONIN REMOVED ([1]; PGA mass 10.4 mg): 2.54 mg
% CALCITONIN REMOVED ([1]; PGA mass 11.8 mg): 38.0%
CALCITONIN REMOVED ([1]; PGA mass 11.8 mg): 1.71 mg
% CALCITONIN REMOVED ([1]; PGA mass 13.2 mg): 32.7%
CALCITONIN REMOVED ([1]; PGA mass 13.2 mg): 1.64 mg
% CALCITONIN REMOVED ([1]; PGA mass 14.0 mg): 41.2%
CALCITONIN REMOVED ([1]; PGA mass 14.0 mg): 2.02 mg
% CALCITONIN REMOVED ([1]; PGA mass 15.8 mg): 53.7%
CALCITONIN REMOVED ([1]; PGA mass 15.8 mg): 2.69 mg
% CALCITONIN REMOVED ([1]; PGA mass 18.4 mg): 77.4%
CALCITONIN REMOVED ([1]; PGA mass 18.4 mg): 3.87 mg
% CALCITONIN REMOVED ([1]; PGA mass 21.0 mg): 82.1%
CALCITONIN REMOVED ([1]; PGA mass 21.0 mg): 4.10 mg
% CALCITONIN REMOVED ([1]; PGA mass 22.3 mg): 58.6%
CALCITONIN REMOVED ([1]; PGA mass 22.3 mg): 2.95 mg
% CALCITONIN REMOVED ([1]; PGA mass 23.7 mg): 72.4%
CALCITONIN REMOVED ([1]; PGA mass 23.7 mg): 3.62 mg
% CALCITONIN REMOVED ([1]; PGA mass 26.3 mg): 82.6%
CALCITONIN REMOVED ([1]; PGA mass 26.3 mg): 4.13 mg
CALCITONIN CONC. ([1]; PGA mass 0.00 mg): 1.020 mg/mL
CALCITONIN CONC. ([1]; PGA mass 5.73 mg): 0.895 mg/mL
CALCITONIN CONC. ([1]; PGA mass 7.81 mg): 0.746 mg/mL
CALCITONIN CONC. ([1]; PGA mass 7.89 mg): 0.932 mg/mL
CALCITONIN CONC. ([1]; PGA mass 10.4 mg): 0.432 mg/mL
CALCITONIN CONC. ([1]; PGA mass 11.8 mg): 0.558 mg/mL
CALCITONIN CONC. ([1]; PGA mass 13.2 mg): 0.673 mg/mL
CALCITONIN CONC. ([1]; PGA mass 14.0 mg): 0.576 mg/mL
CALCITONIN CONC. ([1]; PGA mass 15.8 mg): 0.461 mg/mL
CALCITONIN CONC. ([1]; PGA mass 18.4 mg): 0.226 mg/mL
CALCITONIN CONC. ([1]; PGA mass 21.0 mg): 0.175 mg/mL
CALCITONIN CONC. ([1]; PGA mass 22.3 mg): 0.422 mg/mL
CALCITONIN CONC. ([1]; PGA mass 23.7 mg): 0.276 mg/mL
CALCITONIN CONC. ([1]; PGA mass 26.3 mg): 0.174 mg/mL
time salmon calcitonin remains stable [2]: about 35 hours
% CALCITONIN REMOVED ([3]; PGL mass 0.00 mg): 11.1%
CALCITONIN REMOVED ([3]; PGL mass 0.00 mg): 0.591 mg
% CALCITONIN REMOVED ([3]; PGL mass 2.64 mg): 19.9%
CALCITONIN REMOVED ([3]; PGL mass 2.64 mg): 0.995 mg
% CALCITONIN REMOVED ([3]; PGL mass 4.13 mg): 43.9%
CALCITONIN REMOVED ([3]; PGL mass 4.13 mg): 2.15 mg
% CALCITONIN REMOVED ([3]; PGL mass 5.52 mg): 51.8%
CALCITONIN REMOVED ([3]; PGL mass 5.52 mg): 2.69 mg
% CALCITONIN REMOVED ([3]; PGL mass 6.51 mg): 59.8%
CALCITONIN REMOVED ([3]; PGL mass 6.51 mg): 2.87 mg
% CALCITONIN REMOVED ([3]; PGL mass 8.45 mg): 80.8%
CALCITONIN REMOVED ([3]; PGL mass 8.45 mg): 3.64 mg
% CALCITONIN REMOVED ([3]; PGL mass 11.53 mg): 87.5%
CALCITONIN REMOVED ([3]; PGL mass 11.53 mg): 4.37 mg
% CALCITONIN REMOVED ([3]; PGL mass 13.57 mg): 92.5%
CALCITONIN REMOVED ([3]; PGL mass 13.57 mg): 4.44 mg
% CALCITONIN REMOVED ([3]; PGL mass 20.97 mg): 91.6%
CALCITONIN REMOVED ([3]; PGL mass 20.97 mg): 4.95 mg
salmon calcitonin removed (percent) ([3]; above 8 mg of PGL): over 80%
CALCITONIN CONC. ([3]; PGL mass 0.00 mg): 0.941 mg/mL
CALCITONIN CONC. ([3]; PGL mass 2.64 mg): 0.801 mg/mL
CALCITONIN CONC. ([3]; PGL mass 4.13 mg): 0.550 mg/mL
CALCITONIN CONC. ([3]; PGL mass 5.52 mg): 0.501 mg/mL
CALCITONIN CONC. ([3]; PGL mass 6.51 mg): 0.386 mg/mL
CALCITONIN CONC. ([3]; PGL mass 8.45 mg): 0.172 mg/mL
CALCITONIN CONC. ([3]; PGL mass 11.53 mg): 0.125 mg/mL
CALCITONIN CONC. ([3]; PGL mass 13.57 mg): 0.0725 mg/mL
CALCITONIN CONC. ([3]; PGL mass 20.97 mg): 0.0908 mg/mL
% CALCITONIN REMOVED ([4]; PLA mass 0.00 mg): 1.03%
CALCITONIN REMOVED ([4]; PLA mass 0.00 mg): 0.055 mg
% CALCITONIN REMOVED ([4]; PLA mass 2.68 mg): 40.8%
CALCITONIN REMOVED ([4]; PLA mass 2.68 mg): 2.04 mg
% CALCITONIN REMOVED ([4]; PLA mass 4.81 mg): 47.2%
CALCITONIN REMOVED ([4]; PLA mass 4.81 mg): 2.36 mg
% CALCITONIN REMOVED ([4]; PLA mass 10.28 mg): 55.4%
CALCITONIN REMOVED ([4]; PLA mass 10.28 mg): 2.77 mg
% CALCITONIN REMOVED ([4]; PLA mass 14.95 mg): 72.4%
CALCITONIN REMOVED ([4]; PLA mass 14.95 mg): 3.62 mg
% CALCITONIN REMOVED ([4]; PLA mass 20.40 mg): 60.3%
CALCITONIN REMOVED ([4]; PLA mass 20.40 mg): 3.02 mg
CALCITONIN CONC. ([4]; PLA mass 0.00 mg): 1.05 mg/mL
CALCITONIN CONC. ([4]; PLA mass 2.68 mg): 0.592 mg/mL
CALCITONIN CONC. ([4]; PLA mass 4.81 mg): 0.488 mg/mL
CALCITONIN CONC. ([4]; PLA mass 10.28 mg): 0.386 mg/mL
CALCITONIN CONC. ([4]; PLA mass 14.95 mg): 0.276 mg/mL
CALCITONIN CONC. ([4]; PLA mass 20.40 mg): 0.417 mg/mL
